7 compounds from PubChem BioAssay AID1918949 (Molecular Pharmacology Branch, DTP, NCI, 2023) can be followed below.

Several values for one entry are separate records, joined by “and”; a condition that tells them apart may be missing. Equal entries are not always repeated.

The experiment has as its system K24384-001-R-PDC complex spheroid viability. Briefly: Anticancer human tumor K24384-001-R-PDC patient-derived pancreatic adenocarcinoma cell line growth inhibition. Particulars: for viability, T/C: stronger effect = lower value. Summed up:
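Complex spheroids of tumor cells with HUVEC and human MSCs, exposed to iadademstat combined with other agents. Each agent tested in half-log steps from near clinical Cmax (else 10 microM top), DMSO ≤0.25%.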

Where [1] appears, read: curve of first compound, second compound 0.1 µM.
Where [2] appears, read: curve of first compound, second compound 0.316 µM.
The mark [3] stands for this setting: curve of first compound, second compound 1 µM.
Setting [4] is: curve of first compound, second compound 3.16 µM.
Setting [5] is: curve of first compound, second compound 10 µM.
[6] abbreviates: second compound 0.1 µM, first compound 0.00949 µM.
Where [7] appears, read: second compound 0.1 µM, first compound 0.03 µM.
Where [8] appears, read: second compound 0.1 µM, first compound 0.0949 µM.
Setting [9] is: second compound 0.1 µM, first compound 0.3 µM.
The mark [10] stands for this setting: second compound 0.1 µM, first compound 0.949 µM.
Where [11] appears, read: second compound 0.1 µM, first compound 3 µM.
Where [12] appears, read: second compound 0.316 µM, first compound 0.00949 µM.
Where [13] appears, read: second compound 0.316 µM, first compound 0.03 µM.
The mark [14] stands for this setting: second compound 0.316 µM, first compound 0.0949 µM.
The mark [15] stands for this setting: second compound 0.316 µM, first compound 0.3 µM.
The mark [16] stands for this setting: second compound 0.316 µM, first compound 0.949 µM.
The mark [17] stands for this setting: second compound 0.316 µM, first compound 3 µM.
The mark [18] stands for this setting: second compound 1 µM, first compound 0.00949 µM.
[19] abbreviates: second compound 1 µM, first compound 0.03 µM.
Where [20] appears, read: second compound 1 µM, first compound 0.0949 µM.
Where [21] appears, read: second compound 1 µM, first compound 0.3 µM.
Where [22] appears, read: second compound 1 µM, first compound 0.949 µM.
The mark [23] stands for this setting: second compound 1 µM, first compound 3 µM.
[24] abbreviates: second compound 3.16 µM, first compound 0.00949 µM.
Where [25] appears, read: second compound 3.16 µM, first compound 0.03 µM.
Setting [26] is: second compound 3.16 µM, first compound 0.0949 µM.
[27] abbreviates: second compound 3.16 µM, first compound 0.3 µM.
The mark [28] stands for this setting: second compound 3.16 µM, first compound 0.949 µM.
The mark [29] stands for this setting: second compound 3.16 µM, first compound 3 µM.
[30] abbreviates: second compound 10 µM, first compound 0.00949 µM.
Where [31] appears, read: second compound 10 µM, first compound 0.03 µM.
[32] abbreviates: second compound 10 µM, first compound 0.0949 µM.
[33] abbreviates: second compound 10 µM, first compound 0.3 µM.
Setting [34] is: second compound 10 µM, first compound 0.949 µM.
The mark [35] stands for this setting: second compound 10 µM, first compound 3 µM.
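Further: spheroids exposed to agents for seven days before luminescence viability reading.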
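Wherever viability, T/C is given: 100% = DMSO vehicle control viability.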

For the compound `O=C(C=Cn1cnc(-c2cc(C(F)(F)F)cc(C(F)(F)F)c2)n1)NNc1cnccn1` + NC1CC1c1ccc(-c2cccc(O)c2)cc1, the IC50 under setting [1] is 27.7 nM; the concentration for half-maximal inhibition (IC50) under setting [2] came to 23.7 nM; the 50% inhibitory concentration (IC50) under setting [3] came out at 22.4 nM; the IC50 under setting [4] is 21.2 nM; the half-maximal inhibitory concentration (IC50) under setting [5] came to 27.8 nM. The viability, T/C reads like this: (second compound 0.1 µM, first compound 0.00316 µM) 68.8%; (second compound 0.1 µM, first compound 0.01 µM) 72.3%; (second compound 0.1 µM, first compound 0.0316 µM) 46.5%; (second compound 0.1 µM, first compound 0.1 µM) 28.7%; (second compound 0.1 µM, first compound 0.316 µM) 24.7%; (second compound 0.1 µM, first compound 1 µM) 20.6%. The viability, T/C (second compound 0.316 µM, first compound 0.00316 µM) is 68.2%; the viability, T/C (second compound 0.316 µM, first compound 0.01 µM) is 72.8%; the viability, T/C (second compound 0.316 µM, first compound 0.0316 µM) was 42.7%; the viability, T/C (second compound 0.316 µM, first compound 0.1 µM) is 30.2%; the viability, T/C (second compound 0.316 µM, first compound 0.316 µM) is 21.6%; the viability, T/C (second compound 0.316 µM, first compound 1 µM) was 20.3%. Also, the viability, T/C (second compound 1 µM, first compound 0.00316 µM) was 67.1%; the viability, T/C (second compound 1 µM, first compound 0.01 µM) was 77%; the viability, T/C (second compound 1 µM, first compound 0.0316 µM) was 40.6%; the viability, T/C (second compound 1 µM, first compound 0.1 µM) is 27.3%; the viability, T/C (second compound 1 µM, first compound 0.316 µM) is 22.7%; the viability, T/C (second compound 1 µM, first compound 1 µM) was 19%. Also, the viability, T/C reads like this: (second compound 3.16 µM, first compound 0.00316 µM) 80.9%; (second compound 3.16 µM, first compound 0.01 µM) 65.4%; (second compound 3.16 µM, first compound 0.0316 µM) 42%; (second compound 3.16 µM, first compound 0.1 µM) 26%; (second compound 3.16 µM, first compound 0.316 µM) 21.7%; (second compound 3.16 µM, first compound 1 µM) 19.5%. The viability, T/C is, setting by setting: (second compound 10 µM, first compound 0.00316 µM) 80.6%; (second compound 10 µM, first compound 0.01 µM) 81.9%; (second compound 10 µM, first compound 0.0316 µM) 46%; (second compound 10 µM, first compound 0.1 µM) 30.7%; (second compound 10 µM, first compound 0.316 µM) 26.7%; (second compound 10 µM, first compound 1 µM) 24.5%.
As to `O=C(C=Cc1cccc(S(=O)(=O)Nc2ccccc2)c1)NO` + NC1CC1c1ccc(-c2cccc(O)c2)cc1, the 50% inhibitory concentration (IC50) under setting [1] amounted to 240 nM; the IC50 under setting [2] came to 233 nM; the concentration for half-maximal inhibition (IC50) under setting [3] was 229 nM; the IC50 under setting [4] came out at 235 nM; the IC50 under setting [5] was 185 nM. In addition, the viability, T/C under setting [6] is 105%; the viability, T/C under setting [7] was 111%; the viability, T/C under setting [8] was 95.5%; the viability, T/C under setting [9] was 39.3%; the viability, T/C under setting [10] was 3.97%; the viability, T/C under setting [11] is 2.49%. For the same compound, the viability, T/C runs as follows: under setting [12], 90%; under setting [13], 108%; under setting [14], 117%; under setting [15], 34.4%; under setting [16], 4.35%; under setting [17], 1.43%. The viability, T/C is, setting by setting: under setting [18], 80.9%; under setting [19], 113%; under setting [20], 98.1%; under setting [21], 35.6%; under setting [22], 5.51%; under setting [23], 0.1%. The viability, T/C reads like this: under setting [24], 85%; under setting [25], 124%; under setting [26], 103%; under setting [27], 35.5%; under setting [28], 4.17%; under setting [29], 0.1%. Further, the viability, T/C reads like this: under setting [30], 81.1%; under setting [31], 114%; under setting [32], 70.7%; under setting [33], 32.7%; under setting [34], 5.8%; under setting [35], 0.18%.
In the case of `O=C(c1cc(Cc2n[nH]c(=O)c3ccccc23)ccc1F)N1CCN(C(=O)C2CC2)CC1`, the viability, T/C (compound 0.0316 µM) was 104% and 94.8%; the viability, T/C (compound 0.1 µM) was 97.3% and 91.9%; the viability, T/C (compound 0.316 µM) was 91% and 88.9%; the viability, T/C (compound 1 µM) is 85.5% and 81.4%; the viability, T/C (compound 3.16 µM) was 82.9% and 67.7%; the viability, T/C (compound 10 µM) is 84.4% and 70.1%. Further, the half-inhibitory concentration (IC50) (curve of compound) is greater than 10000 nM.
`O=C(C=Cn1cnc(-c2cc(C(F)(F)F)cc(C(F)(F)F)c2)n1)NNc1cnccn1`: the viability, T/C is 74% and 75.6% (compound 0.00316 µM); 61.5% and 68% (compound 0.01 µM); 60.1% and 51.8% (compound 0.0316 µM); 35.2% and 28.2% (compound 0.1 µM); 29.8% and 27.7% (compound 0.316 µM); 19.4% and 19.7% (compound 1 µM). Also, the IC50 (curve of compound) was 45.2 nM and 32.6 nM.
For `CCN(c1cc(-c2ccc(CN3CCOCC3)cc2)cc(C(=O)NCc2c(C)cc(C)[nH]c2=O)c1C)C1CCOCC1` + NC1CCC(NC2CC2c2ccccc2)CC1, the IC50 is, setting by setting: under setting [1], greater than 3000 nM; under setting [2], greater than 3000 nM; under setting [3], greater than 3000 nM; under setting [4], greater than 3000 nM; under setting [5], greater than 3000 nM. The viability, T/C was 96% under setting [6]; 80.3% under setting [7]; 80.6% under setting [8]; 107% under setting [9]; 86.5% under setting [10]; 57.5% under setting [11]. Also, the viability, T/C is, setting by setting: under setting [12], 96.7%; under setting [13], 92.1%; under setting [14], 94.7%; under setting [15], 92.1%; under setting [16], 93.7%; under setting [17], 71.1%. The viability, T/C by setting is: under setting [18], 98.4%; under setting [19], 84.3%; under setting [20], 103%; under setting [21], 83.7%; under setting [22], 82.2%; under setting [23], 62.9%. Further, the viability, T/C is 81.3% under setting [24]; 104% under setting [25]; 91.6% under setting [26]; 79.1% under setting [27]; 73% under setting [28]; 70.2% under setting [29]. For the same compound, the viability, T/C reads like this: under setting [30], 80.3%; under setting [31], 82.7%; under setting [32], 98.8%; under setting [33], 73.7%; under setting [34], 79.1%; under setting [35], 70.5%.
`CC(C)CC(NC(=O)CNC(=O)c1cc(Cl)ccc1Cl)B1OC(=O)CC(CC(=O)O)(C(=O)O)O1` (stereo not drawn): the viability, T/C (compound 0.000316 µM) is 100% and 107%; the viability, T/C (compound 0.001 µM) was 103% and 86.3%; the viability, T/C (compound 0.00316 µM) was 91.3% and 79.2%; the viability, T/C (compound 0.01 µM) was 42.1% and 59.8%; the viability, T/C (compound 0.0316 µM) was 4.17% and 4.53%; the viability, T/C (compound 0.1 µM) was 0.95% and 1.47%. Besides, the IC50 (curve of compound) was 8.28 nM and 11.1 nM.
`CC(C)CC(NC(=O)C(Cc1ccccc1)NC(=O)c1cnccn1)B(O)O` (stereo not drawn): the viability, T/C is, setting by setting: (compound 0.000316 µM) 81.2% and 95.6%; (compound 0.001 µM) 1.67% and 1.46%; (compound 0.00316 µM) 0.39% and 0.47%; (compound 0.01 µM) 0.38%; (compound 0.0316 µM) 0.34% and 0.41%; (compound 0.1 µM) 0.36% and 0.35%. For the same compound, the IC50 (curve of compound) was 0.497 nM and 0.552 nM.

The IC50 is the concentration that gives 50% inhibition. As usually defined, the viability, T/C is the ratio of treated to control.
